This assay deals with STAT3 (Homo sapiens, UniProt P40763). As to the kind of experiment: SPR. The class given is binding.

One may read the Kd as the concentration at which binding is half-saturated.

Chain of STAT3 (P40763 2-770): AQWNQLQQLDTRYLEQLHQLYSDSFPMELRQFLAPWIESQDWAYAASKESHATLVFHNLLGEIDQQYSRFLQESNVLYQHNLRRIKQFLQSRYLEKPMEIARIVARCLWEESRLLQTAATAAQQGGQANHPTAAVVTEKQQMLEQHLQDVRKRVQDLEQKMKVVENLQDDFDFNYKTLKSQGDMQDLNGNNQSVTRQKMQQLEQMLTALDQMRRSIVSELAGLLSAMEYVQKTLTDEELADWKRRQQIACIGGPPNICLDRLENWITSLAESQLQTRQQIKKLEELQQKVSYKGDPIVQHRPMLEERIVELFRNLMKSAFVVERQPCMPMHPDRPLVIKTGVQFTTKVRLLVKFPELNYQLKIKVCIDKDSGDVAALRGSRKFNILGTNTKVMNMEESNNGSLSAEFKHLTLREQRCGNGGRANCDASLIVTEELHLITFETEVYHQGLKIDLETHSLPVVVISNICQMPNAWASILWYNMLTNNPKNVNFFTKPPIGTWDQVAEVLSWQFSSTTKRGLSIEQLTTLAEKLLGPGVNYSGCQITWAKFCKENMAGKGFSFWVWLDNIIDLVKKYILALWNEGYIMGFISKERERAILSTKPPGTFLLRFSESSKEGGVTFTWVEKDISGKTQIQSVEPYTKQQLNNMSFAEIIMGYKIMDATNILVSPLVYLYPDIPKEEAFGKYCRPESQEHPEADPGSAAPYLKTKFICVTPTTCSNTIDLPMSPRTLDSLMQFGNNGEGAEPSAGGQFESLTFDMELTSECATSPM

With `Fc1ccc(-n2cc(CCCCN3CCC4(CC3)OCc3ccccc34)c3ccccc32)cc1` [Siramesine], the affinity, expressed as Kd, was 871 µM.

Source of the values: article PMC12247293 (Journal of Translational Medicine, 2025).
